The record followed here is patent US20250066310A1, “MULTI-SUBSTITUTED URACIL DERIVATIVE AND PREPARATION METHOD THEREFOR AND APPLICATION THEREOF” (HANGZHOU ADAMERCK PHARMLABS INC., priority 2021, published 2025).

Each structure is given as a SMILES string. Marks after values point to notes of the source that are not given here.

One data set deals with ICR mice. Kind of data set: Effect on in vivo bleeding time in mice (tail cut). To be noted: 100 mg/kg i.g. once daily for 4 days. The protocol: A normal control group (blank), positive control group (clopidogrel) and experimental groups were set up with 10 ICR mice (male, weighed about 25 g) in each group. Animals in each group were administered the corresponding drug solution by oral gavage (i.g.) at 0.1 ml/10 g body weight, and the blank control group was given distilled water, once daily for 4 days. On the 4th day, 1 h after the administration of the drug, the animals were anesthetized by intraperitoneal injection of sodium barbiturate at a dose of about 50 mg/kg, and 20 min later, the tails of the mice were cut at a distance of 3 mm from the tip of the tail, and at regular intervals, absorbent paper was used to dip the blood at the severed tails until no blood exuded, which was recorded as the bleeding time, and the results of the experiment were shown in Table 2.
Calculation equation for prolongation of bleeding time: […]

Data set [1] relates to mice injected with ellagic acid via the tail vein. The experiment in a line: Effect on in vivo clotting time in mice (ellagic acid tail vein injection). Particulars: Mus musculus, iv, 100 mg/kg i.g. for 4 days, ellagic acid i.v. 1 h after last dose, vs model group, read-out: Clotting time prolongation (%). As for the experimental part:
The control and model groups were gavaged with distilled water, and the positive clopidogrel group, and the test substance group were gavaged orally (i.g.) with drug solution in a volume of 0.1 mL/10 g for 4 consecutive days. 1 h after the last administration, all groups were injected with 0.15 mL/10 g of 0.3% ellagic acid solution via tail vein injection except for the blank group which was injected with physiological saline: 0.1 ml/10 g. After 5 min, glass capillaries were used for blood collection through the retro-orbital venous plexus, and the appearance time of coagulation filaments was recorded by glass capillaries at 10-second intervals.
Calculation equation for prolongation of clotting time:
Prolongation of clotting time (%)=[(mean value of clotting time in blank or administered group/mean value of clotting time in model group)−1]×100%

The test system of data set [2] is rats with focal permanent cerebral ischemia (MCAO). Kind of data set: Focal permanent cerebral ischemic injury (MCAO), administration from 3 h post-ischemia. In kind it is in vivo, SD rats.
Data set [3] has as its system acute inflammatory response caused by ellagic acid (serum cytokines). Kind of data set: Antibody microarray detection of serum factors in ellagic acid model mice. In kind it is in vivo, ICR mice. Details: TNFa / IL-6 / IL-1b / IL-5 / IL-13 / IL-1α / IL-1β / IL-2 / IL-3 / IL-4 / IFNg / CD40: unit not given here. As for the experimental part:
Experimental methods: ICR male mice, weighed about 25 g, were randomly divided into four groups: normal group, ellagic acid model group, 1-1 group, and 1-22 group, with four mice in each group. Mice in 1-1 group and 1-22 group were given 1-1, 100 mg/kg and 1-22, 100 mg/kg by gavage once a day respectively. 1 h after the third administration, except for the normal control group, the other three groups of mice were injected into the tail vein with 0.10 mL/10 g of 0.3% ellagic acid saline solution, and 1 h after injection, whole blood was collected from each animal, and centrifuged (3,000 rpm/min) for 10 min after 30 min of standing, and then centrifuged to obtain the serum. The serum from each group of animal was mixed in an EP tube, transported at −80° C., and sent for antibody microarray detection.

[4] abbreviates: Table 16, pooled serum, 100 mg/kg by gavage.
[5] abbreviates: Table 17, pooled serum, 100 mg/kg by gavage.
Where [6] appears, read: Table 18, pooled serum, 100 mg/kg by gavage.
[7] abbreviates: Table 19, pooled serum, 100 mg/kg by gavage.

Regarding `CCOC(=O)CCNC(=O)CCNc1cc(=O)n(C)c(=O)n1Cc1cc(F)ccc1C#N` [Compound 1-18], the “Bleeding time prolongation (%)” value in the data set on ICR mice was found to be 13.30%. Moreover, the change in vivo at 100 mg/kg in data set [1] worked out at 42.9%.

As for `Cn1c(NCCC(=O)NCCC(=O)OC2CC2)cc(=O)n(C)c1=O` [Compound 1-5], in the data set on ICR mice, the “Bleeding time prolongation (%)” value was −13.60%. The change in vivo at 100 mg/kg in data set [1] is 41.9%.

Regarding `CC(C)OC(=O)CCNC(=O)CCNc1cc(=O)n(C)c(=O)n1C` [Compound 1-2], the “Bleeding time prolongation (%)” value with ICR mice was 6.50%. Also, the change in vivo at 100 mg/kg in data set [1] was determined as 49.9%.

As to `Cn1c(=O)cc(NCCC(=O)NCCC(=O)Oc2ccccc2)n(Cc2cc(F)ccc2C#N)c1=O` [Compound 1-15], the “Bleeding time prolongation (%)” value in the data set on ICR mice was −4.70%. The change in vivo at 100 mg/kg in data set [1] was 42%.

For `CC(C)OC(=O)CCNC(=O)CCN(C)c1cc(=O)n(C)c(=O)n1Cc1cc(F)ccc1C#N` [Compound 1-45], the “Bleeding time prolongation (%)” value with ICR mice is recorded as 18.60%. The change in vivo at 100 mg/kg in data set [1] was 43.1%.

For the compound `Cn1c(NCCC(=O)NCCC(=O)Oc2ccccc2)cc(=O)n(C)c1=O` [Compound 1-7], the “Bleeding time prolongation (%)” value in the data set with ICR mice was 15.10%. Also, the change in vivo at 100 mg/kg in data set [1] stood at 41.7%.

Regarding `Cn1c(NCCC(=O)NCCC(=O)OC2CC3CCC2(C)C3(C)C)cc(=O)n(C)c1=O` (stereo not drawn) [Compound 1-4], the “Bleeding time prolongation (%)” value with ICR mice is listed as 16.40%. Further, the change in vivo at 100 mg/kg in data set [1] was 39.7%.

Regarding `CC1CCC(C(C)C)C(OC(=O)CCNC(=O)CCNc2cc(=O)n(C)c(=O)n2Cc2cc(F)ccc2C#N)C1` (stereo not drawn) [Compound 1-16], in the data set on ICR mice, the “Bleeding time prolongation (%)” value turned out to be 11.00%. Besides, the change in vivo at 100 mg/kg in data set [1] turned out to be 38%.

Turning to `CCOC(=O)[C@H](NC(=O)CCNc1cc(=O)n(C)c(=O)n1C)C(C)C` [Compound 1-42], the “Bleeding time prolongation (%)” value with ICR mice is on record as −13.40%. The change in vivo at 100 mg/kg in data set [1] amounted to 41.4%.

Turning to `Cn1c(NCCC(=O)NCCC(=O)OC2CCCCC2)cc(=O)n(C)c1=O` [Compound 1-6], the “Bleeding time prolongation (%)” value in the data set on ICR mice amounted to 4.80%. In addition, in data set [1], the change in vivo at 100 mg/kg turned out to be 42.4%.

Regarding `Cc1cccc(C)c1OC(=O)CCNC(=O)CCNc1cc(=O)n(C)c(=O)n1Cc1cc(F)ccc1C#N` [Compound 1-19], in the data set with ICR mice, the “Bleeding time prolongation (%)” value was −38.00%. Besides, in data set [1], the change in vivo at 100 mg/kg was determined as 60.4%.

Regarding `CCOC(=O)CCNC(=O)CCNc1cc(=O)n(Cc2cccnc2)c(=O)n1Cc1cccnc1` [Compound 1-55], in the data set with ICR mice, the “Bleeding time prolongation (%)” value is recorded as −3.10%. The change in vivo at 100 mg/kg in data set [1] was determined as 38.6%.

`CCOC(=O)CCNC(=O)CCNc1cc(=O)n(C2CCCC2)c(=O)n1C1CCCC1` [Compound 1-54]: in the data set on ICR mice, the “Bleeding time prolongation (%)” value was 13.00%. Moreover, in data set [1], the change in vivo at 100 mg/kg stood at 37.2%.

Consider `Cn1c(=O)cc(NCCC(=O)NCCC(=O)Oc2ccccc2)n(Cc2ccccc2)c1=O` [Compound 1-30], for which the “Bleeding time prolongation (%)” value in the data set on ICR mice is listed as −9.70%. Besides, the change in vivo at 100 mg/kg in data set [1] was 39.8%.

Take `CCOC(=O)CCNC(=O)CCNc1cc(=O)[nH]c(=N)[nH]1` [Compound 1-39]: the “Bleeding time prolongation (%)” value with ICR mice was 16.90%. The change in vivo at 100 mg/kg in data set [1] was found to be 37.2%.

Regarding `CCOC(=O)CCCCCNC(=O)CCCCCNc1cc(=O)[nH]c(=O)[nH]1` [Compound 1-38], the “Bleeding time prolongation (%)” value with ICR mice turned out to be 28.40%. Also, the change in vivo at 100 mg/kg in data set [1] was 37.5%.

Consider `CC(C)OC(=O)CCNC(=O)CCNc1cc(=O)n(Cc2cccnc2)c(=O)n1Cc1cccnc1` [Compound 1-34], for which the “Bleeding time prolongation (%)” value with ICR mice is recorded as −2.10%. Further, in data set [1], the change in vivo at 100 mg/kg is 53.5%.

As for `CCOC(=O)CCCCNC(=O)CCCCNC(=O)CCCCNc1cc(=O)n(C)c(=O)n1C` [Compound 1-48], the “Bleeding time prolongation (%)” value in the data set on ICR mice is 26.40%. The change in vivo at 100 mg/kg in data set [1] is 38.6%.

On to `CC(C)OC(=O)CCNC(=O)CCNc1cc(=O)n(C)c(=O)n1Cc1cccnc1` [Compound 1-27], for which the “Bleeding time prolongation (%)” value in the data set with ICR mice is 23.50%. The change in vivo at 100 mg/kg in data set [1] was found to be 39.5%.

For the compound `CCOC(=O)CCCCCNC(=O)CCCCCNc1cc(=O)n(C)c(=O)n1C` [Compound 1-23], the “Bleeding time prolongation (%)” value in the data set with ICR mice was −19.20%. Also, in data set [1], the change in vivo at 100 mg/kg is 38.1%.

Consider `CCCCC1OC(=O)c2ccccc21` (stereo not drawn) [Butylphthalide, butylphthalide, reference compound], for which the “Number of survivors after 15 days animal” value in data set [2] (60 mg/kg by gavage once a day, 15 enrolled) is given as 7. The “Mortality (%)” value in data set [2] (15-day, 60 mg/kg by gavage) was 53.33%. The “Neurological function score on day 15” value in data set [2] (Bederson's method, 60 mg/kg) turned out to be 1.25. For the same compound, in data set [2] (mean body weight, 60 mg/kg), the “Weight on day 1” value worked out at 281.00 g, the “Weight on day 5” value is given as 234.27 g and the “Weight on day 15” value worked out at 276.75 g.

Turning to `Cn1c(NCCCCCC(=O)NCCCCCC(=O)O)cc(=O)n(C)c1=O` [Compound 1-24], the “Bleeding time prolongation (%)” value in the data set on ICR mice worked out at 20.60%. Further, the change in vivo at 100 mg/kg in data set [1] was found to be 36.7%.

For `CCOC(=O)CCNC(=O)CCNc1cc(=O)n(C)c(=O)n1Cc1ccccc1C#N` [Compound 1-17], in the data set on ICR mice, the “Bleeding time prolongation (%)” value is given as −6.20%. Moreover, the change in vivo at 100 mg/kg in data set [1] was 44.1%.

`CCOC(=O)CCNC(=O)[C@H](Nc1cc(=O)n(C)c(=O)n1C)C(C)CC` (stereo partly drawn) [Compound 1-22]: in data set [3] (setting [4]), the IL-6 was 10,273.27*, the RANTES/ccl5 is reported as 1,909.28* and the TNFa is 290.22*. Also, the IL-1b in data set [3] (Table 16, pooled serum, 100 mg/kg by gavage once a day x3, 1 h after ellagic acid) was 268.76*. Further, in data set [3] (setting [5]), the IL-1α was 837.49*, the IL-1β is 268.76*, the IL-2 is 464.49 and the IL-3 is 872.26*. Further, in data set [3] (setting [5]), the IL-4 is recorded as 961.11*, the IL-5 is on record as 227.55*, the IL-6 is reported as 10,273.27* and the IL-13 is 620.73*. In data set [3] (setting [6]), the Eotaxin/CCL11 is 3,096.53*, the MCP1/CCL2 is 2,231.63*, the MIP-3a/CCL20 is recorded as 1,252.13* and the RANTES/CCL5 was 1,909.28*. For the same compound, in data set [3] (setting [7]), the CD40 is reported as 509.56* and the IFNg is 218.11*. In data set [3] (interleukin factors (Table 17), compared with the model group), the “number of down-regulated differential proteins” value is recorded as “seven”. In addition, the “Bleeding time prolongation (%)” value with ICR mice is listed as 19.83%. For the same compound, the change in vivo at 100 mg/kg in data set [1] stood at 40.7%.

As to `CC1CCC(C(C)C)C(OC(=O)CCNC(=O)CCNc2cc(=O)n(C)c(=O)n2Cc2cccnc2)C1` (stereo not drawn) [Compound 1-32], in the data set on ICR mice, the “Bleeding time prolongation (%)” value is given as −9.00%. In data set [1], the change in vivo at 100 mg/kg was determined as 48.4%.

Turning to `CC(C)OC(=O)CCNC(=O)CCNc1cc(=O)n(C)c(=O)n1Cc1cc(F)ccc1C#N` [Compound 1-13], in the data set on ICR mice, the “Bleeding time prolongation (%)” value was 15.60%. Besides, the change in vivo at 100 mg/kg in data set [1] was determined as 39.8%.

Turning to `CCOC(=O)CCNC(=O)[C@@H](Nc1cc(=O)n(C)c(=O)n1C)C(C)CC` (stereo partly drawn) [Compound 1-37], the “Bleeding time prolongation (%)” value with ICR mice came to 48.80%. Moreover, the change in vivo at 100 mg/kg in data set [1] is 32.6%.

Take `Cc1cccc(C)c1OC(=O)CCNC(=O)CCNc1cc(=O)n(C)c(=S)n1C` [Compound 1-11]: in the data set on ICR mice, the “Bleeding time prolongation (%)” value is reported as 20.60%. Besides, the change in vivo at 100 mg/kg in data set [1] came out at 39.3%.

As to `CC(C)OC(=O)CCNC(=O)CCNc1cc(=O)n(Cc2ccccc2)c(=O)n1Cc1ccccc1` [Compound 1-26], the “Bleeding time prolongation (%)” value in the data set with ICR mice was −13.30%. In data set [1], the change in vivo at 100 mg/kg worked out at 40.4%.
